# Key:
# [1] = target: Tyrosine-protein kinase ABL1 (Homo sapiens) (UniProt P00519); assay: Inhibition of ABL (unknown origin) at 0.49 uM relative to control
# [2] = target: T1, Aurora kinase A (Homo sapiens) (UniProt O14965); assay: Inhibition of AurA (unknown origin) at 0.49 uM relative to control
# T1 sequence (whole entry): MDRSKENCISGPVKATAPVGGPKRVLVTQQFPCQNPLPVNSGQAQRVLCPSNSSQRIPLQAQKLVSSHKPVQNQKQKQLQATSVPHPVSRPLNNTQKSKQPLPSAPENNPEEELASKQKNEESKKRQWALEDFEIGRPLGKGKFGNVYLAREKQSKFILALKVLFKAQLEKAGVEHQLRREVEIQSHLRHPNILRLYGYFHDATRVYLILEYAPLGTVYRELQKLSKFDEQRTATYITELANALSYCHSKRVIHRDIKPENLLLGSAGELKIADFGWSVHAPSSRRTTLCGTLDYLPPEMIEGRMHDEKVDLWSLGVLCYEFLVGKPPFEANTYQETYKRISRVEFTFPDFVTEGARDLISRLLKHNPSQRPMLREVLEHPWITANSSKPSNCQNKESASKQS
# [3] = target: Inhibitor of nuclear factor kappa-B kinase subunit epsilon (Homo sapiens) (UniProt Q14164); assay: Inhibition of IKBKE (unknown origin) at 0.49 uM relative to control
# [4] = target: Tyrosine-protein kinase receptor UFO (Homo sapiens) (UniProt P30530); assay: Inhibition of AXL (unknown origin) at 0.49 uM relative to control
# [5] = target: Protein-tyrosine kinase 2-beta (Homo sapiens) (UniProt Q14289); assay: Inhibition of PYK2 (unknown origin) at 0.49 uM relative to control
# [6] = target: Tyrosine-protein kinase Lck (Homo sapiens) (UniProt P06239); assay: Inhibition of LCK (unknown origin) at 0.49 uM relative to control
# [7] = tested on: Tyrosine-protein kinase ABL1 (Homo sapiens), P00519 [Y253F]; assay: Inhibition of ABL1 Y253F mutant (unknown origin) at 0.49 uM relative to control
# [8] = target: T2, Serine/threonine-protein kinase D2 (Homo sapiens) (UniProt Q9BZL6); assay: Inhibition of PKD2 (unknown origin) at 0.49 uM relative to control
# T2 sequence (whole entry): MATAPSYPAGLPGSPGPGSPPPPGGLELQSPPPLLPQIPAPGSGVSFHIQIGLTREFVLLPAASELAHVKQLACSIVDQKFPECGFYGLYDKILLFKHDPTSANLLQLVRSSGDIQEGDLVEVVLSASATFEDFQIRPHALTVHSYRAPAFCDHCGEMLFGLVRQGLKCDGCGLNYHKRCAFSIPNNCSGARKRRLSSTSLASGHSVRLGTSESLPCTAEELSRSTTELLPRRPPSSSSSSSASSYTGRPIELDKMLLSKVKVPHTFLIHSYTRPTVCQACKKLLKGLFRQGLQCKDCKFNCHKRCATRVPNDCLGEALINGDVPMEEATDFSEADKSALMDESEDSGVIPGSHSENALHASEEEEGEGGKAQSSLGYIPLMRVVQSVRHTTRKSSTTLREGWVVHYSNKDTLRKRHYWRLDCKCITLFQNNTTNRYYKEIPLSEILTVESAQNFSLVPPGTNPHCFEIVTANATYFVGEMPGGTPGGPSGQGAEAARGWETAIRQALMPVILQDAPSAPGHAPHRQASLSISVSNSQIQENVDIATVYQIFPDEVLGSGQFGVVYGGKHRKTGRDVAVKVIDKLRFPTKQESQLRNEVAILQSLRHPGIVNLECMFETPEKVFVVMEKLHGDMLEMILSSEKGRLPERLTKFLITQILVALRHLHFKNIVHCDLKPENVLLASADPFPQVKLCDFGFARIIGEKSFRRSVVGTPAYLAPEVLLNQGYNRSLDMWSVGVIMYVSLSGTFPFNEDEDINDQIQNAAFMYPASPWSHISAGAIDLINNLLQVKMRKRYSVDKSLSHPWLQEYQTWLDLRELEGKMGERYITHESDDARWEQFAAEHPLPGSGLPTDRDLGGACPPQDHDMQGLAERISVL
# [9] = target: T3, Calcium/calmodulin-dependent protein kinase type IV (Homo sapiens) (UniProt Q16566); assay: Inhibition of CAMK4 (unknown origin) at 0.45 uM relative to control
# T3 sequence (whole entry): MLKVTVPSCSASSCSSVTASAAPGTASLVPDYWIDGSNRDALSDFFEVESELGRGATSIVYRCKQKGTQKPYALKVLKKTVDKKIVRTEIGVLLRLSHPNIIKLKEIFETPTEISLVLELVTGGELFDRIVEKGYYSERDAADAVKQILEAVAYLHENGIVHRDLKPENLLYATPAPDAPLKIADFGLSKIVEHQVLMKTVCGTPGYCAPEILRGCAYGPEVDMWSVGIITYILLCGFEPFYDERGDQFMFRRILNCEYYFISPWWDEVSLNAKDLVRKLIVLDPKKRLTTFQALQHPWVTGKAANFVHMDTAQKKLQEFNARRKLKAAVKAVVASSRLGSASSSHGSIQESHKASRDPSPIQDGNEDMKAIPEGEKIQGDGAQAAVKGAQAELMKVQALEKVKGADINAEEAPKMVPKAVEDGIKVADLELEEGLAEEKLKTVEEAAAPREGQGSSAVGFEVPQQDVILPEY
# Homo sapiens = organism: Homo sapiens; assay: Inhibition of ACK (unknown origin) at 0.45 uM relative to control
# [10] = target: High affinity nerve growth factor receptor (Homo sapiens) (UniProt P04629); assay: Inhibition of TRKA (unknown origin) at 0.45 uM relative to control
# [11] = target: Tyrosine-protein kinase Srms (Homo sapiens) (UniProt Q9H3Y6); assay: Inhibition of SRM (SRMS) (unknown origin) at 0.45 uM relative to control
# [12] = target: Serine/threonine-protein kinase Nek2 (Homo sapiens) (UniProt P51955); assay: Inhibition of NEK2 (unknown origin) at 0.45 uM relative to control
# [13] = target: MAP kinase-interacting serine/threonine-protein kinase 2 (Homo sapiens) (UniProt Q9HBH9); assay: Inhibition of MNK2 (unknown origin) at 0.45 uM relative to control
# [14] = target: ALK tyrosine kinase receptor (Homo sapiens) (UniProt Q9UM73); assay: Inhibition of ALK (unknown origin) at 0.45 uM relative to control
# [15] = target: Calcium/calmodulin-dependent protein kinase type II subunit gamma (Homo sapiens) (UniProt Q13555); assay: Inhibition of CaMK2-gamma (unknown origin) at 0.45 uM relative to control
# [16] = target: Tyrosine-protein kinase ABL1 (Homo sapiens) (UniProt P00519); assay: Inhibition of ABL (unknown origin) at 0.45 uM relative to control
# [17] = tested on: Fibroblast growth factor receptor 1 (Homo sapiens), P11362 [V561M]; assay: Inhibition of FGFR1 V561M mutant (unknown origin) at 0.45 uM relative to control
# [18] = tested on: Receptor-type tyrosine-protein kinase FLT3 (Homo sapiens), P36888 [D835Y]; assay: Inhibition of Flt3 D835Y mutant (unknown origin) at 0.45 uM relative to control
# Sequence of ALK tyrosine kinase receptor (Homo sapiens) (Q9UM73 19-1620 limits assumed): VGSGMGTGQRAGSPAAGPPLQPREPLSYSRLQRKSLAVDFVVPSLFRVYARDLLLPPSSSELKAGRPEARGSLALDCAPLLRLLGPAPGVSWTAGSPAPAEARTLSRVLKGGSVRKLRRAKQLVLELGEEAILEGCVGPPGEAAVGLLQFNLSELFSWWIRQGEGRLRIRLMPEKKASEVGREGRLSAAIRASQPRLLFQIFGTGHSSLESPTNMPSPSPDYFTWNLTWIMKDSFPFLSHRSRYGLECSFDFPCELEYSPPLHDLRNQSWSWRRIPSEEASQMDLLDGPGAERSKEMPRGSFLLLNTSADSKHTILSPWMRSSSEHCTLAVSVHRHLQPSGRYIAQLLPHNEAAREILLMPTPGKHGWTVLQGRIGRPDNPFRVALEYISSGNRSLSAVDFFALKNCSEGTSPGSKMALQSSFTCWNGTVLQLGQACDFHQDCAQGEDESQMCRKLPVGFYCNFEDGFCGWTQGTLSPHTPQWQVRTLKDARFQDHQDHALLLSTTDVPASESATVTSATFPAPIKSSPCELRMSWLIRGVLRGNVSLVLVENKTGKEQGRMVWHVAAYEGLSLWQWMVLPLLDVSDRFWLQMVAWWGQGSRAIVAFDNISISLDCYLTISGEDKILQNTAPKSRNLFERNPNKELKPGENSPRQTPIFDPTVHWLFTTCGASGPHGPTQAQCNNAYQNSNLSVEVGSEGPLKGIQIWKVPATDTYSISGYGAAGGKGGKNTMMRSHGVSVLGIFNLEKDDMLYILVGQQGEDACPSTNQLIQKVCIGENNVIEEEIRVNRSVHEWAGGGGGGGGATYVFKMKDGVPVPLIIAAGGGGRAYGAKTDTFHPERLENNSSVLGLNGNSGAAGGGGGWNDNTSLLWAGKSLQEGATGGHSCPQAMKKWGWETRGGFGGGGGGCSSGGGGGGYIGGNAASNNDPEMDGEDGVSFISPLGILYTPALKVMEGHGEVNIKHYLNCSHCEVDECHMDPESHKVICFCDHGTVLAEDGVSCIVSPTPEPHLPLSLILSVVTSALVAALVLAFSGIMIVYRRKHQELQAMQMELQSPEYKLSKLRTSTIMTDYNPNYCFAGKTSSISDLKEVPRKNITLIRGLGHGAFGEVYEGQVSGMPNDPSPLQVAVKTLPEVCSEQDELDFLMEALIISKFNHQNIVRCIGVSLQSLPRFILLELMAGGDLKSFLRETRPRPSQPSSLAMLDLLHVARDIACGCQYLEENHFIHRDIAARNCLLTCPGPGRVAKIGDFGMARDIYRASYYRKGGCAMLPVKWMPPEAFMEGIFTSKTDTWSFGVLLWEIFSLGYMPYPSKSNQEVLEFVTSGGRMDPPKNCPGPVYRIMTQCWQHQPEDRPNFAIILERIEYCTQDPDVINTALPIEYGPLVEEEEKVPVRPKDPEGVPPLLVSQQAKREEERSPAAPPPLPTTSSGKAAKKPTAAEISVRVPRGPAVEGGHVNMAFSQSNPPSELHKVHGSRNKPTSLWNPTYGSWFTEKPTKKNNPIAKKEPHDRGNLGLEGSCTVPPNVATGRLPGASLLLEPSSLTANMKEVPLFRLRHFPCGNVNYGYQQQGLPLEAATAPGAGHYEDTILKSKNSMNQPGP
# Sequence of Inhibitor of nuclear factor kappa-B kinase subunit epsilon (Homo sapiens) (Q14164 whole entry): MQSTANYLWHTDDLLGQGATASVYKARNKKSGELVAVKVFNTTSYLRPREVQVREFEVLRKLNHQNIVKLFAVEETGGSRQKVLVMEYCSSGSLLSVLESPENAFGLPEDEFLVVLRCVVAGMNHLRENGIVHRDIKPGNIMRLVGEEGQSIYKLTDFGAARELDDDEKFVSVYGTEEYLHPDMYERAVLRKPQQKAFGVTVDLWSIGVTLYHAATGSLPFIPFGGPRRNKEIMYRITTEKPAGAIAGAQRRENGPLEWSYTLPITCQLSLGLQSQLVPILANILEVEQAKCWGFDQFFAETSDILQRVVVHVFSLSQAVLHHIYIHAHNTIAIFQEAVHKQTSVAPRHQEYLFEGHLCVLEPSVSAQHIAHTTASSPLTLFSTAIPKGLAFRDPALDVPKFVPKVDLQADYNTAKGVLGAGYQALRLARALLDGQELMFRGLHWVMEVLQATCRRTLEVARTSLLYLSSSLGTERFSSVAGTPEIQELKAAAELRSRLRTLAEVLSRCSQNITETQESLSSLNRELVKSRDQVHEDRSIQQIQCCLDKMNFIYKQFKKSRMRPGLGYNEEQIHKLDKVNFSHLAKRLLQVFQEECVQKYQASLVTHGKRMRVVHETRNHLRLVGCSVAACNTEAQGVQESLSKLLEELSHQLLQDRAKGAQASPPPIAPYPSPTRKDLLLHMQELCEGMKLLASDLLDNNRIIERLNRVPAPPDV
# Sequence of Tyrosine-protein kinase Lck (Homo sapiens) (P06239 2-509 limits assumed): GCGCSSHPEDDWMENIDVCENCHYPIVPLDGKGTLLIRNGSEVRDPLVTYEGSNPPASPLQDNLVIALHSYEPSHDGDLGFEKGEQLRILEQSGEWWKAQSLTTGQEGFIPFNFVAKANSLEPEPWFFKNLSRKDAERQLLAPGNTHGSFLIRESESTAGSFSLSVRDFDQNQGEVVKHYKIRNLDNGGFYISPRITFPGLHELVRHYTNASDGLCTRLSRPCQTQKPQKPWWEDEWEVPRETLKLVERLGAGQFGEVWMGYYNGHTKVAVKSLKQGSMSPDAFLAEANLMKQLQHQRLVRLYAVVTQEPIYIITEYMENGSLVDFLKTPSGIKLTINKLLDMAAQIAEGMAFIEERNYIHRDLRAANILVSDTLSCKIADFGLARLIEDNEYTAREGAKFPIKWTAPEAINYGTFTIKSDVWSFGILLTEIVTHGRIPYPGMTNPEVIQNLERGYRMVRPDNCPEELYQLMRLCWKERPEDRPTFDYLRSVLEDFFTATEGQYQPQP
# Sequence of MAP kinase-interacting serine/threonine-protein kinase 2 (Homo sapiens) (Q9HBH9 whole entry, looked up): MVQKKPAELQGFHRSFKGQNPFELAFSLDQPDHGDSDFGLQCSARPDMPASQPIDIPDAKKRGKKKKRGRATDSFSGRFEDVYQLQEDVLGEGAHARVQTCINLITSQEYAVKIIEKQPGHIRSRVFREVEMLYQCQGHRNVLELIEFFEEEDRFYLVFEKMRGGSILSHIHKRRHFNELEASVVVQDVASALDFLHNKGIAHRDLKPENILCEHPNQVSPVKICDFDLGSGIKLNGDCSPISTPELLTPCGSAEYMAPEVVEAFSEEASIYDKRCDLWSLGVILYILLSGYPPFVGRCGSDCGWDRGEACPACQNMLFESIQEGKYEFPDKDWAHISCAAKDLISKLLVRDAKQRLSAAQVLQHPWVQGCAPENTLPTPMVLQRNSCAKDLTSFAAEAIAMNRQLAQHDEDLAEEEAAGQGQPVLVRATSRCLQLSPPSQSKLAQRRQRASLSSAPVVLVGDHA
# Sequence of High affinity nerve growth factor receptor (Homo sapiens) (P04629 33-796 limits assumed): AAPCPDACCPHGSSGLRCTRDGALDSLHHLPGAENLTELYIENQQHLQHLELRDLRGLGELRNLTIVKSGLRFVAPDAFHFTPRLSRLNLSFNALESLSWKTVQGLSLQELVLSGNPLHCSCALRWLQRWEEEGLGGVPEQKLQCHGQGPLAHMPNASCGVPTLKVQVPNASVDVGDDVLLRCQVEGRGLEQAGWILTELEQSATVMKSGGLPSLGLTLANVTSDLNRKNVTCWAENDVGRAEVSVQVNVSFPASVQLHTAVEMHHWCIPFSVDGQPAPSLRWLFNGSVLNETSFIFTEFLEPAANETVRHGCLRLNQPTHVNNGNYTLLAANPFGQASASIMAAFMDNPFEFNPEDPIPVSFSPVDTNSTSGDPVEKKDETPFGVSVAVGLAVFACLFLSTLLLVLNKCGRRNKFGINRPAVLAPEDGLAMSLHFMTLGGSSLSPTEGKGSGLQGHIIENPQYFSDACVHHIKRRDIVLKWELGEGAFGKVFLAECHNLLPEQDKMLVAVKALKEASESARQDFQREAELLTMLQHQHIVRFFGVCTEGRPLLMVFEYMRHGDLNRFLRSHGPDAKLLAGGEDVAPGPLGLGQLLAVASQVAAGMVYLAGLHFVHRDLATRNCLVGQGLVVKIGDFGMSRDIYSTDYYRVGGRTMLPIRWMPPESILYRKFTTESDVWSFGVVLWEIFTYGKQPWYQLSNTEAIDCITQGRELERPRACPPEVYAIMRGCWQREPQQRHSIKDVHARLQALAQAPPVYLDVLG
# Sequence of Tyrosine-protein kinase receptor UFO (Homo sapiens) (P30530 whole entry): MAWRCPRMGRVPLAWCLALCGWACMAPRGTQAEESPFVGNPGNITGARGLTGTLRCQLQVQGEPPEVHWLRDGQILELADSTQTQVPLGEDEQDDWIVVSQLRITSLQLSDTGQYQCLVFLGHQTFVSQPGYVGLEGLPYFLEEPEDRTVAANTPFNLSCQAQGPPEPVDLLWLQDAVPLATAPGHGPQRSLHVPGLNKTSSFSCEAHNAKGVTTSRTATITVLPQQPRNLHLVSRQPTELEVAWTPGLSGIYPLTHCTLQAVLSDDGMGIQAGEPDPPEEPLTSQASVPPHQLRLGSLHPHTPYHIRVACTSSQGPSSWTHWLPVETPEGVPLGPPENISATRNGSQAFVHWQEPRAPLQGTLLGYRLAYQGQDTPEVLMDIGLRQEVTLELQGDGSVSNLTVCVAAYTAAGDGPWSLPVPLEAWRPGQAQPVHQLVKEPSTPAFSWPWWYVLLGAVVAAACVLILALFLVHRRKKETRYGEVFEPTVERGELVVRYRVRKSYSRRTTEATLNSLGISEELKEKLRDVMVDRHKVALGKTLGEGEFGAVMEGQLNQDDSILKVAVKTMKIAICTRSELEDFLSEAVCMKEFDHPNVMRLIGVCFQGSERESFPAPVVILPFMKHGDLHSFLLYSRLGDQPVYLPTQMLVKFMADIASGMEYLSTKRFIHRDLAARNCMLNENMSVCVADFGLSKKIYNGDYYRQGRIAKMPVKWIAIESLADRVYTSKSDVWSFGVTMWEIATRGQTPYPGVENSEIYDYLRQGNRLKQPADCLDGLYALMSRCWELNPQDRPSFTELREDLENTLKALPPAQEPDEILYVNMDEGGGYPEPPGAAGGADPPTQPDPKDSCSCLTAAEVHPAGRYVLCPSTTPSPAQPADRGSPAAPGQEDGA
inhibition [1] [%],inhibition [2] [%],inhibition [3] [%],inhibition [4] [%],inhibition [5] [%],inhibition [6] [%],inhibition [7] [%],inhibition [8] [%],inhibition [9] [%],inhibition (Homo sapiens) [%],inhibition [10] [%],inhibition [11] [%],inhibition [12] [%],inhibition [13] [%],inhibition [14] [%],inhibition [15] [%],inhibition [16] [%],inhibition [17] [%],inhibition [18] [%],Compound
38.3,5.7,1.7,-0.3,1.3,5.7,24.3,7.7,–,–,–,–,–,–,–,–,–,–,–,Cc1[nH]nc(C2CC2)c1-c1ccc2c(NC(=O)C3CC3)noc2c1
–,–,–,–,–,–,–,–,0,13,93.7,9,3.3,-1,26,3,82,23.7,89,Cc1n[nH]c(C)c1-c1ccc2c(NC(=O)c3ccc(N4CCN(C)CC4)cc3)n[nH]c2c1
